According to patent US6696417B1, “Skin and hair darkening composition” (Chesebrough-Pond's USA Co., division of Conopco, Inc., priority 1997, dated 2004):

Key:
tyrosinase [1] = assay: In vitro enhancement of melanin formation (Example 3); format: biochemical; details: 18 nmoles polyamino acid; DL-DOPA, 20 nmoles lysozyme, 0.45 mg tyrosinase, acetate buffer pH 5.0; absorbance at 400 nm; control 0.120
Description: (§1) The assay conditions for the formation of melanin under in vitro conditions are as follows.
The control assay mixture contained 5 mmoles of DL-DOPA (Dihydroxy phenyl alanine), lysozyme 20 nmoles and 0.45 mg of tyrosinase in acetate buffer pH 5.0 in a test tube. In the experimental set 18 nmoles of the polyglutamate, a polyamino acid sequence with pI 2.5 or polyarginine pI 10.9 or polylysine pI 11.0 was used in addition to the other ingredients as defined in the control. The melanin formed was washed with the buffer, suspended in 1 N sodium hydroxide and dissolved by heating the sample at 60° C. for 5 minutes. The absorbance was measured at 400 nm.

tyrosinase [2] = assay: In vitro enhancement of melanin formation (Example 1); format: biochemical
Excerpt: as §1
The control assay mixture contained 5 pmoles of DL-DOPA (Dihydroxy phenyl alanine), 20nmoles lysozyme and 3.2 units of tyrosinase in acetate buffer pH 5.0 in a test tube. A unit is defined as the amount of tyrosinase needed to convert 1 nmol DOPA in one minute. In the experimental set 11 nmoles of polylysine, a polyamino acid sequence with pI 11.0, was used in addition to the other ingredients as defined in the control. The melanin formed was washed with the acetate buffer, suspended in 1N sodium hydroxide and dissolved by heating the sample at 60° C. for 5 minutes. The absorbance was measured at 400 nm.

Melanin formed A 400 (tyrosinase [1]) | Substance | Melanin formed A 400 (tyrosinase [2]; 11 nmoles polyamino acid, DL-DOPA, 20 nmoles lysozyme, 3.2 units tyrosinase, acetate buffer pH 5.0, absorbance at 400 nm, control 0.120) | melanin production (in words) (tyrosinase [2]; in presence of polylysine versus control, pH 5)
0.182 | polyarginine |  | 
0.048 | polyglutamate [reference compound] |  | 

Substance | Melanin formed A 400 (tyrosinase [1]) | Melanin formed A 400 (tyrosinase [2]; 11 nmoles polyamino acid, DL-DOPA, 20 nmoles lysozyme, 3.2 units tyrosinase, acetate buffer pH 5.0, absorbance at 400 nm, control 0.120) | melanin production (in words) (tyrosinase [2]; in presence of polylysine versus control, pH 5)
polylysine | 0.168 | 0.168 | significantly enhanced
